PubChem BioAssay (NCI)
“And” between values parts separate entries of the source, which are not always exact repeats. Equal values may be shown once.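 Five concentrations, 48 hours, 96-well plates. At the GI50, growth is halved. TGI is the concentration that stops growth completely.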

Assays:
Assay in all cases: NCI-60 cell line screen, 48 h
COLO 205 colon = tested on: COLO 205 colon
OVCAR-3 ovarian = tested on: OVCAR-3 ovarian
HOP-62 NSCLC = tested on: HOP-62 NSCLC
HCT-116 colon = tested on: HCT-116 colon
IGROV1 ovarian = tested on: IGROV1 ovarian
SK-MEL-2 melanoma = tested on: SK-MEL-2 melanoma
SR leukemia = tested on: SR leukemia
HL-60(TB) leukemia = tested on: HL-60(TB) leukemia
MOLT-4 leukemia = tested on: MOLT-4 leukemia
A549 NSCLC = tested on: A549 NSCLC

SMILES	GI50 (COLO 205 colon) [µM]	TGI (COLO 205 colon) [µM]	GI50 (OVCAR-3 ovarian)	TGI (OVCAR-3 ovarian) [µM]	GI50 (HOP-62 NSCLC) [µM]	TGI (HOP-62 NSCLC) [µM]	GI50 (HCT-116 colon)	TGI (HCT-116 colon) [µM]	GI50 (IGROV1 ovarian) [µM]	TGI (IGROV1 ovarian) [µM]	GI50 (SK-MEL-2 melanoma)	TGI (SK-MEL-2 melanoma)	GI50 (SR leukemia) [µM]	TGI (SR leukemia)	GI50 (HL-60(TB) leukemia)	TGI (HL-60(TB) leukemia)	GI50 (MOLT-4 leukemia) [µM]	TGI (MOLT-4 leukemia)	GI50 (A549 NSCLC) [µM]	TGI (A549 NSCLC) [µM]
CNC(=O)Cc1nc(-c2cccc(NS(=O)(=O)c3c(F)cccc3F)c2F)c(-c2ccnc(Nc3ccccc3)n2)s1	0.0188	> 30.2	12.9 µM	> 50	3.27	> 50	1.05 µM	> 29.2	0.462	> 19.6	0.419 µM	> 46 µM	8.07	> 50 µM	3.96 µM	> 50 µM	12.5	> 50 µM	8.53	> 50
COc1ccc(-c2c3c(n(C4OC(COC(C)=O)C(OC(C)=O)C(OC(C)=O)C4OC(C)=O)c(=S)c2C#N)CC(C)(C)CC3=O)cc1 (configuration not stated)		> 100	40.5 µM and 88.7 µM	> 100		> 100	41.8 µM and > 100 µM	> 100		> 100	26.3 µM and > 100 µM	76.4 µM and > 100 µM		74.7 µM and > 100 µM	18.4 µM and 47.6 µM	42.5 µM and > 100 µM		57.1 µM and > 100 µM		> 100
OCC(O)c1nc2ccc3[nH]ncc3c2c2c1CCCC2 (configuration not stated)	1.23	3.43	1.67 µM	> 50	1.53	> 50	1.24 µM	> 50	1.38	> 50	1.18 µM	2.99 µM	0.658	4.52 µM	1.24 µM	3.14 µM	1.56	> 50 µM	1.67	> 50
COc1ccc(C(=O)c2cc3c(N)c(C(=O)Nc4ccc(C)cc4)sc3nc2C)cc1	3.47	> 100	2.25 µM	7.18	4.43	31.5	3.19 µM	22.2	6.25	38.2	4.04 µM	34.7 µM	0.525	> 100 µM	2.78 µM	10.3 µM	3.92	> 100 µM	3.96	> 100
COc1cc(Nc2nc3ccccc3cc2C(=O)Nc2ccc(F)c(F)c2)cc(OC)c1OC	1.77	3.78	2.56 µM	6.96	2.73	12.2	2.84 µM	9.08	4.08	> 100	2.1 µM	5.98 µM	2.71	9.4 µM	2.43 µM	7.14 µM	2.04	6.15 µM	3.08	> 100
CN1C(=O)N[C@H]2[C@@H]3NC(=O)c4ccc(Br)n4[C@@H]3C[C@]21O	0.0832	1.18	0.121 µM	1.85	0.117	1.09	0.112 µM	2.39	0.0617	1.6	0.0568 µM	0.194 µM	0.0335	0.639 µM	0.0324 µM	0.132 µM	0.0704	0.351 µM	0.27	4.47
CC(C)(C)CC(C)(C)NCc1cc(C(C)(C)C)cc(CNC(C)(C)CC(C)(C)C)c1O	1.41	2.8	2.59 µM	7	4.69	17.9	2.1 µM	5.78	3.93	15.9	2.84 µM	6.6 µM	2.14	5.44 µM	2.51 µM	8.04 µM	2.93	9.34 µM	3.97	14.7
CCCN(CCCC(NC(C)=O)C(=O)NCc1ccccc1)C(=O)NCCCl (configuration not stated)		> 100		> 100		> 100		> 100		> 100		> 100 µM		> 100 µM		> 100 µM		> 100 µM		> 100
COC(=O)c1cc(O)c2c(c1C(=O)OC)C[C@H]1[C@@H]3CC=C4C[C@@H](O)CC[C@]4(C)[C@H]3CC[C@]21C			2.19 µM	4.94	2.24	6.27	3.09 µM	14.6	3.89	15.9	2.79 µM	5.6 µM	3.41	> 100 µM	3.03 µM	6.93 µM	2.22	5.56 µM	3.06	11.7
